# In patent US6750256B1, “Use of aromatic aldehydes as insecticides” (Proguard, Inc., priority 1994, dated 2004):
# Legend:
# [1] = tested on: adult Aedes aegypti mosquitos; assay: Mosquito adulticide treated filter paper test; format: in vivo
# Procedure: The toxicity of the formulation for mosquitos was determined using adult Aedes aegypti mosquitos from the University of California Mosquito Control Research Laboratory at the Kearney Agricultural Center. The experiments were performed as double blind studies.
# One ml test formulation was pipetted onto 11 cm #2 Whatman filter paper circle cut to fit shell vials (84 mm×23 mm) which was air dried at room temperature for two hours and placed in a shell vial (84 mm×23 mm). Twenty unblooded adult female mosquitos approximately four days of age were aspirated using gentle suction into each shell vial. The open end of the vial was covered with 1 mm nylon mesh and filter paper cut to fit for complete coverage from an 11 cm #2 Whatman filter paper circle. The vials were placed in a polyethylene mosquito bag (46 cm×20 cm) with a wet paper towel inside and loosely sealed. The bag was gently inflated by gently blowing in air and placed in an incubator at 22° C. for 24 hours with a day light cycle (14 hrs light; 10 hrs dark). Untreated paper and paper treated with H2O were used as controls. Mortality was determined by counting the number of dead mosquitos.
# The efficacy of various concentrations of cinnamic aldehyde in a formulation of 2% Tween 80, 6% NaHCO3 was tested, using concentrations of cinnamic aldehyde ranging from 25,000 ppm to 10 ppm with and without the addition of saponin, 1:60 dilution of a 10° Brix solution. At concentrations down to 100 ppm added to the filter paper, 100% of the mosquitos were killed. At 10 ppm added to the filer paper, 78% of the mosquitos were killed in the absence of saponin, but only 5% with saponin 14% of mosquitos were killed with the addition of 2% Tween 80 and 6% NaHCO3 alone to the filter paper and 50% with the further addition of a 1:60 dilution 10° Brix saponin. The percent mortality is the average of three replications, with corrections for control mortality. Malathion was used as a positive control.
# melon aphids = assay: Melon aphid whole plant spray with cinnamaldehyde and saponin; format: in vivo, Aphis gossypii Glover; settings: whole plant sprayed to drip
# Procedure: Whole nonflowering potted chrysanthemum plants were used to assay melon aphids. Two plants were treated for each treatment and two leaves, one from the top of the plant and one from the bottom of the plant, were sampled to determine the number of living and dead melon aphids. Three treatments were applied: 1.0% CNMA plus 0.5% saponin, 0.5% CNMA plus 0.25% saponin, and 0.5% saponin only. The whole plants were sprayed to “drip” on both the top and bottom sides of leaves. Results are presented as the proportion of aphids found dead. Results were as follows: control plant (0.5% saponin only) 14.8% ±4.5; 0.5% CNMA 48.3±16.1; 1.0% CNMA 72.0±11.2.
# [2] = tested on: thrips insects (Frankliniella occidentalis); assay: Residual activity on treated filter paper against thrips; format: in vivo; settings: rehydrated 24 and 72 hours after spraying, thrips exposed one hour
# Procedure: In the first experiment, two ml of two concentrations of CNMA (0.3 and 1%) were sprayed on filter paper (Whatman). As a negative control, two ml of water was also sprayed on filter paper. Twenty-four hours later, two ml of water were sprayed on treatment and control filter paper, which were then dried for 30 min. Approximately 30 thrips insects (Frankliniella occidentalis) were introduced onto the treated filter papers and the number of F. occidentalis were observed after one hour. Mean mortality was calculated for each treatment. After 72 hours, the treated filter papers were flipped over and only the negative control filter paper and the filter paper treated with 1% CNMA were sprayed with 2 ml of water and allowed to dry for 30 minutes. Approximately 30 thrips were introduced onto the two treated filter papers and after one hour the number of dead F. occidentalis were observed and the mean mortality calculated for each treatment. A similar assay was conducted using AHCNMA. Mean mortality was higher for rehydrated filter papers compared to non-rehydrated filter papers over time.
# [3] = tested on: two-spotted spider mite, Tetranychus urticae; assay: Spider mite treated petri dish contact bioassay; format: in vivo; settings: Tetranychus urticae, 24 hours contact, read-out: Percent Mortality (24 hours)
# Procedure: Activity of cinnamic aldehyde and/or coniferyl aldehyde against two-spotted spider mite, Tetranychus urticae is determined as follows. In a double blind experiment, intersurfaces of petri dishes (60 mm diameter) were treated with 100 μl of a test formulation and allowed to air dry and used within the hour. Twenty adult spider mites were put in each dish and the percent of mortality of the spider mites after 24 hours in contact with the treated dishes Was determined.
# [4] = tested on: soft tick (Ornithodoros coriaceus); assay: Tick treated filter paper test, soft ticks; format: in vivo
# Procedure: In a double blind experiment, filter papers (90 mm) (Whatman) were treated to uniform saturation with 1 ml of test formula and placed in 90 mm petri dishes. Ten arachnids were placed in each petri dish and the dish closed. […] The cinnamic aldehyde concentrations varied from 10-50,000 ppm in a vehicle of 2% Tween 80, 6% NaHCO3. The effect of vehicle alone or H2O (HPLC) was also tested. In separate experiments, the effects of the components of the vehicle were evaluated in comparison to water.
# [5] = tested on: hard ticks (Ixodea pacificus and Dermacentor albipietus); assay: Tick treated filter paper test, hard ticks; format: in vivo
# Procedure: In a double blind experiment, filter papers (90 mm) (Whatman) were treated to uniform saturation with 1 ml of test formula and placed in 90 mm petri dishes. Ten arachnids were placed in each petri dish and the dish closed. Observations of mortality were made at 30 minutes, 1 hour, 3 hours, 6 hours, 12 hours and 24 hours. The cinnamic aldehyde concentrations varied from 10-50,000 ppm in a vehicle of 2% Tween 80, 6% NaHCO3. The effect of vehicle alone or H2O (HPLC) was also tested. In separate experiments, the effects of the components of the vehicle were evaluated in comparison to water.
# [6] = 24 h, read-out: Percent Mortality CNMA (PGXL)
# [7] = 10 ppm in 2% Tween 80 and 6% NaHCO3
# [8] = 100 ppm in 2% Tween 80 and 6% NaHCO3
# [9] = 2,500 ppm in 2% Tween 80 and 6% NaHCO3
# [10] = 5,000 ppm in 2% Tween 80 and 6% NaHCO3
# [11] = 12,500 ppm in 2% Tween 80 and 6% NaHCO3
# [12] = 25,000 ppm in 2% Tween 80 and 6% NaHCO3
structure (smiles),measurement,setting,value
"O=C/C=C/c1ccccc1 [CNMA, cinnamic aldehyde]",mosquitos killed,"[1]; 10 ppm added to the filter paper, in the absence of saponin",78%
same,mosquitos killed,"[1]; 10 ppm added to the filter paper, with saponin",5%
same,mortality at 10 ppm,[1]; [6],78%
same,mortality at 100 ppm,[1]; [6],100%
same,mortality at 2500 ppm,[1]; [6],95%
same,mortality at 5000 ppm,[1]; [6],100%
same,mortality at 12500 ppm,[1]; [6],100%
same,mortality at 25000 ppm,[1]; [6],100%
same,mosquitos killed,[1]; concentrations down to 100 ppm added to the filter paper,100%
same,proportion of aphids found dead,melon aphids; 0.5% CNMA plus […] saponin,48.3±16.1%
same,proportion of aphids found dead,melon aphids; 1.0% CNMA plus 0.5% saponin,72.0±11.2%
same,residual activity in words,[2],residual activity
same,mortality at 10 ppm,"[3]; 10 ppm in 2% Tween 80, 6% NaHCO3",51.7%
same,mortality at 100 ppm,"[3]; 100 ppm in 2% Tween 80, 6% NaHCO3",56%
same,mortality at 2500 ppm,"[3]; 2,500 ppm in 2% Tween 80, 6% NaHCO3",78%
same,mortality at 5000 ppm,"[3]; 5,000 ppm in 2% Tween 80, 6% NaHCO3",66.4%
same,mortality at 12500 ppm,"[3]; 12,500 ppm in 2% Tween 80, 6% NaHCO3",98.6%
same,mortality at 25000 ppm,"[3]; 25,000 ppm in 2% Tween 80, 6% NaHCO3",99.2%
same,Number Dead 24 Hours (#/30),[4]; [7],0 #/30
same,Number Dead 120 Hours (#/30),[4]; [7],0 #/30
same,Number Dead 24 Hours (#/30),[4]; [8],0 #/30
same,Number Dead 120 Hours (#/30),[4]; [8],0 #/30
same,Number Dead 24 Hours (#/30),[4]; [9],2/30
same,Number Dead 120 Hours (#/30),[4]; [9],6/30
same,Number Dead 24 Hours (#/30),[4]; [10],3/30
same,Number Dead 120 Hours (#/30),[4]; [10],6/30
same,Number Dead 24 Hours (#/30),[4]; [11],5/30
same,Number Dead 120 Hours (#/10),[4]; [11],10/10
same,Number Dead 120 Hours (#/30),[4]; [11],6/30
same,Number Dead 24 Hours (#/30),[4]; [12],7/30
same,Number Dead 120 Hours (#/10),[4]; [12],10/10
same,Number Dead 120 Hours (#/30),[4]; [12],21/30
same,Number Dead 120 Hours (#/10),"[4]; 30,000 ppm in 2% Tween 80 and 6% NaHCO3",10/10
same,Number Dead 120 Hours (#/10),"[4]; 35,000 ppm in 2% Tween 80 and 6% NaHCO3",10/10
same,Number Dead 120 Hours (#/10),"[4]; 40,000 ppm in 2% Tween 80 and 6% NaHCO3",10/10
same,Number Dead 120 Hours (#/10),"[4]; 45,000 ppm in 2% Tween 80 and 6% NaHCO3",10/10
same,Number Dead 120 Hours (#/10),"[4]; 50,000 ppm in 2% Tween 80 and 6% NaHCO3",10/10
same,mortality at 12500 ppm,[4]; Ornithodoros coriaceus,100%
same,mortality,"[5]; 2500 ppm in vehicle (2% Tween 80, 6% NaHCO3), in 24 hours, preliminary experiments",100%
same,effect on mortality,[5]; concentrations below 2500 in vehicle,no effect on mortality
